{"source": "patent US10064814B2", "about": "“Use of spider venoms for skin whitening/depigmenting and composition comprising spider venoms molecules or synthetic analogs” (priority 2012, dated 2018)", "key": {"TRP1": {"system": "TRP1", "experiment": "Western blot analysis of TRP1 expression", "format": "cell-based, murine", "conditions": "α-MSH stimulated B16F10 cells, FIG. 16", "method": "Cells were seeded at 1.10^6 cells/dish and cultivated in n-dish as previously described. After trypsination, the pelled were homogenized in a solution containing Sodium Dodecyl Sulphate (SDS) and were boiled 5 min at 96° C. to denature the proteins. Protein extracts were separated via a 10% SDS-PAGE for 1 h at 200 V and transferred onto a polyvinylidene difluoride membrane (GE healthcare Europe, Vélizy-villacoublay, France). The membranes were blocked overnight with 5% non-fat skim milk in a Tris-buffered saline solution containing 0.1% Tween. Membranes were incubated for 1 h at 37° C. with specific antibody against tyrosinase, TRP1 or MITF (C-19; G-17; N-15, 1:200 for Tyrosinase and TRP1 and 1:100 for MITF, Santa Cruz, Heidelberg, Germany) and actin as a control (C-11, 1:200, Santa Cruz). Membranes were incubated with secondary antibody coupled to horseradish peroxidase (HRP) for 2 h at room temperature (anti-goat 1:2500 for tyrosinase, TRP1 and MITF (ab 97120, Abcam, Paris, France) and anti-rabbit 1:2500 for actin (NA 934V, GE Healthcare)). […] Pre-stained protein markers were used for molecular weight.\nTo explore the mechanism of action of Argiotoxin in melanogenesis processes, we assess its ability to regulate the protein expression of two enzymes, the tyrosinase and TRP1 which is implicated in the biosynthesis of black/brown pigments specifically. […]"}, "B16F10 cells [1]": {"system": "B16F10 cells", "experiment": "Measurement of melanin content in B16F10 melanoma cells (melanogenesis assay)", "format": "cell-based, murine", "conditions": "for IC50: read-out: IC50 melanogenesis (melanin released in the medium)", "method": "(§1) B16F10 were obtained from the American Type Culture Collection (ATCC CRL-6475, Manassas, Va., USA). Cells were cultured in Dulbecco's Modified Eagle Medium (DMEM) supplemented by 10% heat-inactivated foetal bovine serum (FBS, LONZA ltd., Basel, Switzerland) and penicillin/streptomycin (50 μg/ml) in a humidified atmosphere containing 5% CO2 at 37° C.\nDetermination of the extracellular melanin is considered as an index of melanogenesis. B16F10 cells were cultured in 24-well plate (5.10^4 cells/well) in a phenol red free medium and stimulated with 100 nM of α-MSH. […] To quantify the amount of melanin released in the medium, the absorbance of 200 μl of supernatant was read at 405 nm. The values were normalized by the measurement of total protein level present in each well.\nCells were washed with PBS1X and dissolved in 200 μl of NaOH 1N for 1 h at 60° C. The lysate was then centrifuged and the protein content determined by the Folin Lowry method, using the DC protein Assay kit from BIO-RAD (Marnes-la-Coquette, France). The absorbance is read at […].\nB16F10 are murine melanoma cells, a cell line able to produce melanin and considered as an accurate model to assess melanogenesis inhibition. Cells were seeded at 5.10^4 cells/well in a P24 well plate and stimulated by 100 nM of α-MSH, the melanin-stimulating hormone. […] 48 h later, according to […] & EBERLE (Analytical Biochemistry, vol. 159(1), p: 191-7, 1986), the amount of melanin released in the medium was spectrophotometrically measured at 405 nm and normalised to the protein content."}, "B16F10 cells [2]": {"system": "B16F10 cells", "experiment": "Cell viability assay (MTT)", "format": "cell-based, murine", "conditions": "42.1 μM", "method": "as §1\nThe evaluation of B16F10 cells survival relies on the reduction of the tetrazolium ring of water soluble MTT (3-[4,5-dimethylthiazol-2-yl]-2,5-diphenyltetrazolium bromide; Sigma Aldrich) into insoluble purple formazan crystals by the mitochondrial succinate dehydrogenase enzyme. The production of formazan directly reflects the number of living […] cells. B16F10 cells were seeded at 25000 per well in a 96-well plate and incubated in standard culture condition. […] Then, the supernatant was removed and replace by 50 μl of 0.5 mg/ml of MTT solution. The cells were exposed to MTT for 2 h. Finally, each well was washed by PBS1X and the crystals contained in wells are solubilized by adding 100 μl of DMSO. After briefly shaked the plate, the absorbance is measured at 600 nm."}, "B16F10 cells [3]": {"system": "B16F10 cells", "experiment": "LDH cell-based assay (cytotoxicity)", "design": "species or system murine", "conditions": "42.1 μM"}, "tyrosinase": {"system": "tyrosinase", "format": "cell-based, murine", "conditions": "α-MSH stimulated B16F10 cells, FIG. 16", "quoted_text": "Western blot analyses were performed on B16F10 cells treated as previously described."}, "[4]": {"system": "mushroom tyrosinase (DHICA oxidase activity)", "experiment": "DHICA oxidase-inhibiting activity by MBTH assay", "format": "biochemical, Agaricus bisporus", "conditions": "DHICA substrate 0.25 mM", "method": "(§2) Mushroom (Agaricus bisporus) tyrosinase (SIGMA-ALDRICH, T3824) has both DHICA oxidase and DOPA oxidase activity ([…] et al, Pigment Cell Res., vol. 12(2), p: 118-25, 1999).\nDHICA is used as substrate at 0.25 mM. MBTH was obtained from Alfa Aesar and DHICA was prepared according to […] & ITO, (Anal. Biochem., vol. 170(2), p: 335-40, 1988). Here, the MBTH method was used. This method consists to visualize the production of hydrazone-quinone adduct by spectrophotometry. The principle is that MBTH captures the indole-quinone which was generated by the oxidation of dihydroxyindole compounds. DHICA is converted to indole-5,6-quinone-2-carboxylic acid by the DHICA oxidase activity of mushroom tyrosinase, the indole product is trapped by MBTH and the complex formation can be detected at 492 nm (OLIVARES et al, Biochem. J., vol. 354, p: 131-139, 2001). • c) The DHICA oxidase inhibiting activity using mushroom tyrosinase was assayed in vitro. The procedure is the same as described by WINDER & HARRIS (Eur. J. Biochem., vol. 198(2), p: 317-26, 1991) for DOPA oxidase with minor modifications. Purification of the fractions\nThe experimental conditions are the same as previously mentioned. DHICA was used as substrate at 0.25 mM."}, "[5]": {"target": "mushroom tyrosinase (DOPA oxidase activity) (Agaricus bisporus, UniProt C7FF04)", "sequence (C7FF04 1-392)": "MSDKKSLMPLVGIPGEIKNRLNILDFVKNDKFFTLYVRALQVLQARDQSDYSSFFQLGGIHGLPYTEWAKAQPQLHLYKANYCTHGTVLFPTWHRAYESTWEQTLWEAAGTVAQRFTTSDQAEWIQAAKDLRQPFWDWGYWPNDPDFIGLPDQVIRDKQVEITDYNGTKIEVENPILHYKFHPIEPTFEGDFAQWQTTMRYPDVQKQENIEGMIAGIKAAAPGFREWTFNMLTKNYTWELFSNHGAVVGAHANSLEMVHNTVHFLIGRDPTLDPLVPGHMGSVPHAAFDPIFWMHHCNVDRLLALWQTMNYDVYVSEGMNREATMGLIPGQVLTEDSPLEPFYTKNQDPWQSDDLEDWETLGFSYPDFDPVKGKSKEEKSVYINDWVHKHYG", "sequence (G1K3P4 1-150 partner)": "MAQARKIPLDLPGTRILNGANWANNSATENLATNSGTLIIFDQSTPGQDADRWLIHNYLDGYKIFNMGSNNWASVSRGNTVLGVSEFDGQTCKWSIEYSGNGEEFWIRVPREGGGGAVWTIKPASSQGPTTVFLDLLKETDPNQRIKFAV", "experiment": "DOPA oxidase inhibiting activity by spectrophotometry (mushroom tyrosinase assay)", "format": "biochemical", "conditions": "FIG. 12", "method": "as §2\nThe effect of different spider venoms on the DOPA oxidase activity was measured spectrophotometrically. The DOPA oxidase activity was determined using L-DOPA as substrate at 0.2 mM. The amount of DOPA chrome (red pigment) formed was measured against blank at 475 nm. The percentage of DOPA oxidase inhibition was obtained from: Inhibition percentage=[…]\nWith: • A: Absorbance at 475 nm of the reaction medium+inhibitor sample solution with enzyme • B: Absorbance at 475 nm of the reaction medium+inhibitor sample solution without enzyme (blank) • C: Absorbance at 475 nm of the reaction medium enzyme without inhibitor sample solution • D: Absorbance at 475 nm of the reaction medium without both enzyme and inhibitor sample solution […]\nFor the DOPA activity assay: 500 μL of the L-DOPA solution at 0.4 mM is mixed with different volumes according to the different natural inhibitors at 10 mg/mL, and 5 μL of the mushroom tyrosinase solution (added last to initiate the enzymatic reaction and must be kept in ice). […] The absorbance is measured at 475 nm every minute for 15 min using a UV-VIS spectrophotometer BIOMATE 5®. […]"}}, "note": "“Also recorded” adds a separate entry of the source. Read-outs that look alike come from different tables or passages of the source."}
{"smiles": "O=c1cc(CO)occ1O", "note": "[Kojic acid, Kojic Acid, reference compound]", "values": [{"measurement": "expression of TRP1 protein", "setting": "TRP1", "result": "faintly decreases"}, {"measurement": "IC50", "setting": "B16F10 cells [1]; Mus musculus, B16-F10, B16F10, 100 nM α-MSH, 48 h treatment", "result": "~5", "unit": "µM"}]}
{"smiles": "N=C(N)NCCC[C@H](N)C(=O)NCCCNCCCNCCCCCNC(=O)[C@H](CC(N)=O)NC(=O)Cc1ccc(O)cc1O", "note": "[Argiotoxin, Argiotoxin-636]", "values": [{"measurement": "cell death (MTT)", "setting": "B16F10 cells [2]", "result": "neither cell death nor cytotoxicity"}, {"measurement": "expression of TRP1 protein", "setting": "TRP1", "result": "significant inhibition"}, {"measurement": "cytotoxicity (LDH)", "setting": "B16F10 cells [3]", "result": "neither cell death nor cytotoxicity"}, {"measurement": "expression of tyrosinase protein", "setting": "tyrosinase", "result": "significant inhibition"}, {"measurement": "inhibition of DHICA oxidase activity", "setting": "[4]", "result": "dose-dependent inhibition is visible up to 100 μM; also recorded: dose-dependent manner up to 75 μM"}, {"measurement": "fold higher activity on the cellular assay compared with DHPA", "setting": "B16F10 cells [1]; B16F10 melanogenesis", "result": 100, "unit": "fold"}, {"measurement": "IC50", "setting": "B16F10 cells [1]; Mus musculus, B16-F10, 48 h", "result": "~0.01", "unit": "µM"}]}
{"smiles": "O=C(O)Cc1ccc(O)cc1O", "note": "[2,4-DHPAA]", "values": [{"measurement": "IC50", "setting": "[5]", "result": "~6000", "unit": "µM"}, {"measurement": "type of inhibition of DOPA oxidase activity", "setting": "[5]; suggested from dose-response", "result": "competitive inhibitor"}, {"measurement": "IC50", "setting": "B16F10 cells [1]; B16F10, 100 nM α-MSH, 48 h treatment", "result": "~5", "unit": "µM"}]}
